Tests used:
[1] = test system: ABUTH Abutilon theophrasti; experiment: Post-emergence crop and weed test (Example 15); assay type: in vivo; settings: 360 h, after 15 days, read-out: Percentage damage ABUTH
Method in brief: (§1)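 Glasshouse post-emergence trial; 0–100 damage rating taken 15 days after spraying 14-day-old plants, which were watered twice daily post-treatment.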

[2] = test system: AMARE Amaranthus retroflexus; experiment: Post-emergence crop and weed test (Example 15); assay type: in vivo; settings: 360 h, after 15 days, read-out: Percentage damage AMARE
Method in brief: as §1

[3] = test system: CHEAL Chenopodium album; experiment: Post-emergence crop and weed test (Example 15); assay type: in vivo; settings: 360 h, after 15 days, read-out: Percentage damage CHEAL
Method in brief: as §1

[4] = test system: EPHHL Euphorbia heterophylla; experiment: Post-emergence crop and weed test (Example 15); assay type: in vivo; settings: 360 h, after 15 days, read-out: Percentage damage EPHHL
Method in brief: as §1

[5] = test system: GALAP Galium aparine; experiment: Post-emergence crop and weed test (Example 15); assay type: in vivo; settings: 360 h, after 15 days, read-out: Percentage damage GALAP
Method in brief: as §1

[6] = test system: GLXMA Soybean; experiment: Post-emergence crop and weed test (Example 15); assay type: in vivo; settings: Glycine max, 360 h, after 15 days, read-out: Percentage damage GLXMA
Method in brief: as §1

[7] = test system: IPOHE Ipomoea hederacea; experiment: Post-emergence crop and weed test (Example 15); assay type: in vivo; settings: 360 h, after 15 days, read-out: Percentage damage IPOHE
Method in brief: as §1

[8] = test system: KCHSC Kochia scoparia; experiment: Post-emergence crop and weed test (Example 15); assay type: in vivo; settings: Bassia scoparia, 360 h, after 15 days, read-out: Percentage damage KCHSC
Method in brief: as §1

[9] = test system: POLCO Polygonum convolvulus; experiment: Post-emergence crop and weed test (Example 15); assay type: in vivo; settings: Fallopia convolvulus, 360 h, after 15 days, read-out: Percentage damage POLCO
Method in brief: as §1

[10] = test system: SIDSP Sida spinosa; experiment: Post-emergence crop and weed test (Example 15); assay type: in vivo; settings: 360 h, after 15 days, read-out: Percentage damage SIDSP
Method in brief: as §1

[11] = test system: SINAR Sinapis arvensis; experiment: Post-emergence crop and weed test (Example 15); assay type: in vivo; settings: Mutarda arvensis, 360 h, after 15 days, read-out: Percentage damage SINAR
Method in brief: as §1

[12] = test system: VERPE Veronica persica; experiment: Post-emergence crop and weed test (Example 15); assay type: in vivo; settings: 360 h, after 15 days, read-out: Percentage damage VERPE
Method in brief: as §1

[13] = test system: XANST Xanthium strumarium; experiment: Post-emergence crop and weed test (Example 15); assay type: in vivo; settings: 360 h, after 15 days, read-out: Percentage damage XANST
Method in brief: as §1

[14] = test system: ABUTH Abutilon theophrasti; experiment: Pre-emergence crop and weed test (Example 16); assay type: in vivo; settings: after 20 days
Method: (§2) Seeds of crop and representative weed species were sown in standard soil in pots. After cultivation for 1 day under controlled conditions in a glasshouse (at 22/16° C., day/night; 16 hours light; 65% humidity), the plants were sprayed. The spray solution was prepared by dissolving the technical active ingredient in acetone containing 10.56 wt % Emulsogen EL, 42.22 wt % N-methylpyrrolidone and 2.22 wt % DPG-monoethyl ether to give a 5% stock solution. This was then diluted with water containing 0.2% (v/v) of the adjuvant X-77 to give the desired treatment concentration.
(§3) The test plants were then grown on under controlled conditions in a glasshouse (at 22/16° C., day/night; 16 hours light; 65% humidity) and watered twice daily. After 20 days the test was evaluated (100=total damage to plant; 0=no damage to plant).
(§4) Species as for Post-Emergence Test.

[15] = test system: AMARE Amaranthus retroflexus; experiment: Pre-emergence crop and weed test (Example 16); assay type: in vivo; settings: after 20 days
Method: as §2, §3, §4

[16] = test system: CHEAL Chenopodium album; experiment: Pre-emergence crop and weed test (Example 16); assay type: in vivo; settings: after 20 days
Method: as §2, §3, §4

[17] = test system: EPHHL Euphorbia heterophylla; experiment: Pre-emergence crop and weed test (Example 16); assay type: in vivo; settings: after 20 days
Method: as §2, §3, §4

[18] = test system: GALAP Galium aparine; experiment: Pre-emergence crop and weed test (Example 16); assay type: in vivo; settings: after 20 days
Method: as §2, §3, §4

[19] = test system: GLXMA Soybean; experiment: Pre-emergence crop and weed test (Example 16); assay type: in vivo; settings: after 20 days
Method: as §2, §3, §4

[20] = test system: IPOHE Ipomoea hederacea; experiment: Pre-emergence crop and weed test (Example 16); assay type: in vivo; settings: after 20 days
Method: as §2, §3, §4

[21] = test system: KCHSC Kochia scoparia; experiment: Pre-emergence crop and weed test (Example 16); assay type: in vivo; settings: after 20 days
Method: as §2, §3, §4

[22] = test system: POLCO Polygonum convolvulus; experiment: Pre-emergence crop and weed test (Example 16); assay type: in vivo; settings: after 20 days
Method: as §2, §3, §4

[23] = test system: SIDSP Sida spinosa; experiment: Pre-emergence crop and weed test (Example 16); assay type: in vivo; settings: after 20 days
Method: as §2, §3, §4

[24] = test system: SINAR Sinapis arvensis; experiment: Pre-emergence crop and weed test (Example 16); assay type: in vivo; settings: after 20 days
Method: as §2, §3, §4

[25] = test system: XANST Xanthium strumarium; experiment: Pre-emergence crop and weed test (Example 16); assay type: in vivo; settings: after 20 days
Method: as §2, §3, §4

[26] = test system: Alopecurus myosuroides (ALOMY); experiment: Pre-emergence biological efficacy (Example 13); assay type: in vivo; settings: Alopecurus myosuroides, 312 h; pre-emergence, 1,000 g/ha, after 13 days; read-out: Percentage damage ALOMY
Method in brief: (§5)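 Seeds sown in standard soil in pots, kept one day in a glasshouse (24/16 °C day/night, 14 h light, 65% humidity), then sprayed with aqueous solution from acetone/water (50:50) with 0.5% Tween 20 at 250 or 1000 g/ha. Damage scored after 13 days (0 = none, 100 = total).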

[27] = test system: Amaranthus retroflexus (AMARE); experiment: Pre-emergence biological efficacy (Example 13); assay type: in vivo; settings: Amaranthus retroflexus, 312 h; pre-emergence, 1,000 g/ha, after 13 days; read-out: Percentage damage AMARE
Method in brief: as §5

[28] = test system: Echinochloa crus-galli (ECHCG); experiment: Pre-emergence biological efficacy (Example 13); assay type: in vivo; settings: Echinochloa crus-galli, 312 h; pre-emergence, 1,000 g/ha, after 13 days; read-out: Percentage damage ECHCG
Method in brief: as §5

[29] = test system: Setaria faberi (SETFA); experiment: Pre-emergence biological efficacy (Example 13); assay type: in vivo; settings: Setaria faberi, 312 h; pre-emergence, 1,000 g/ha, after 13 days; read-out: Percentage damage SETFA
Method in brief: as §5

[30] = test system: Solanum nigrum (SOLNI); experiment: Pre-emergence biological efficacy (Example 13); assay type: in vivo; settings: Solanum nigrum, 312 h; pre-emergence, 1,000 g/ha, after 13 days; read-out: Percentage damage SOLNI
Method in brief: as §5

[31] = test system: Alopecurus myosuroides (ALOMY); experiment: Post-emergence biological efficacy (Example 14); assay type: in vivo; settings: Alopecurus myosuroides, 312 h; post-emergence, 1,000 g/ha, after 13 days; read-out: Percentage damage ALOMY
Method in brief: (§6)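 Pot-grown seedlings raised 8 days in a glasshouse (24/16 °C day/night, 14 h light, 65% humidity) were sprayed post-emergence with compound in acetone/water (50:50) plus 0.5% Tween 20 at 250 or 1000 g/ha. Damage was scored visually after 13 days on a 0–100 scale (100 = total kill).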

[32] = test system: Amaranthus retroflexus (AMARE); experiment: Post-emergence biological efficacy (Example 14); assay type: in vivo; settings: Amaranthus retroflexus, 312 h; post-emergence, 1,000 g/ha, after 13 days; read-out: Percentage damage AMARE
Method in brief: as §6

[33] = test system: Echinochloa crus-galli (ECHCG); experiment: Post-emergence biological efficacy (Example 14); assay type: in vivo; settings: Echinochloa crus-galli, 312 h; post-emergence, 1,000 g/ha, after 13 days; read-out: Percentage damage ECHCG
Method in brief: as §6

[34] = test system: Ipomea hederaceae (IPOHE); experiment: Post-emergence biological efficacy (Example 14); assay type: in vivo; settings: Ipomoea hederacea, 312 h; post-emergence, 1,000 g/ha, after 13 days; read-out: Percentage damage IPOHE
Method in brief: as §6

[35] = test system: Setaria faberi (SETFA); experiment: Post-emergence biological efficacy (Example 14); assay type: in vivo; settings: Setaria faberi, 312 h; post-emergence, 1,000 g/ha, after 13 days; read-out: Percentage damage SETFA
Method in brief: as §6

[36] = test system: Solanum nigrum (SOLNI); experiment: Post-emergence biological efficacy (Example 14); assay type: in vivo; settings: Solanum nigrum, 312 h; post-emergence, 1,000 g/ha, after 13 days; read-out: Percentage damage SOLNI
Method in brief: as §6

COC(=O)c1nc(-c2ccc(Cl)c(OC)c2F)nc(NCc2ccco2)c1Cl [Ref. Ex. E, 5-Chloro-2-(4-chloro-2-fluoro-3-methoxyphenyl)-4-(furan-2-ylmethylamino)-6-methoxycarbonyl-pyrimidine, reference compound]
pest or weed control at 125 g/ha ([1]; 125 g/ha): 100%
pest or weed control at 125 g/ha ([2]; 125 g/ha): 100%
pest or weed control at 125 g/ha ([3]; 125 g/ha): 90%
pest or weed control at 125 g/ha ([4]; 125 g/ha): 100%
pest or weed control at 125 g/ha ([5]; 125 g/ha): 90%
plant injury at 125 g/ha ([6]; 125 g/ha): 100%
pest or weed control at 125 g/ha ([7]; 125 g/ha): 90%
pest or weed control at 125 g/ha ([8]; 125 g/ha): 90%
pest or weed control at 125 g/ha ([9]; 125 g/ha): 90%
pest or weed control at 125 g/ha ([10]; 125 g/ha): 90%
pest or weed control at 125 g/ha ([11]; 125 g/ha): 90%
pest or weed control at 125 g/ha ([12]; 125 g/ha): 10%
pest or weed control at 125 g/ha ([13]; 125 g/ha): 100%
Percentage damage ABUTH ([14]; 125 g/ha): 40%
Percentage damage AMARE ([15]; 125 g/ha): 70%
Percentage damage CHEAL ([16]; 125 g/ha): 30%
Percentage damage EPHHL ([17]; 125 g/ha): 100%
Percentage damage GALAP ([18]; 125 g/ha): 90%
Percentage damage GLXMA ([19]; 125 g/ha): 10%
Percentage damage IPOHE ([20]; 125 g/ha): 30%
Percentage damage KCHSC ([21]; 125 g/ha): 60%
Percentage damage POLCO ([22]; 125 g/ha): 0%
Percentage damage SIDSP ([23]; 125 g/ha): 70%
Percentage damage SINAR ([24]; 125 g/ha): 70%
Percentage damage XANST ([25]; 125 g/ha): 20%

C=Cc1c(N)nc(-c2ccc(Cl)c(OC)c2F)nc1C(=O)OC [Compound 2, 4-Amino-2-(4-chloro-2-fluoro-3-methoxy-phenyl)-5-ethenyl-6-methoxy-carbonyl-pyrimidine]
pest or weed control at 8 g/ha ([1]; 8 g/ha): 80%
pest or weed control at 8 g/ha ([2]; 8 g/ha): 80%
pest or weed control at 8 g/ha ([4]; 8 g/ha): 90%
pest or weed control at 8 g/ha ([5]; 8 g/ha): 80%
plant injury at 8 g/ha ([6]; 8 g/ha): 60%
pest or weed control at 8 g/ha ([7]; 8 g/ha): 90%
pest or weed control at 8 g/ha ([8]; 8 g/ha): 30%
pest or weed control at 8 g/ha ([9]; 8 g/ha): 70%
pest or weed control at 8 g/ha ([10]; 8 g/ha): 80%
pest or weed control at 8 g/ha ([11]; 8 g/ha): 10%
pest or weed control at 8 g/ha ([13]; 8 g/ha): 90%
Percentage damage ABUTH ([14]; 15 g/ha): 40%
Percentage damage AMARE ([15]; 15 g/ha): 40%
Percentage damage CHEAL ([16]; 15 g/ha): 70%
Percentage damage EPHHL ([17]; 15 g/ha): 100%
Percentage damage GALAP ([18]; 15 g/ha): 100%
Percentage damage GLXMA ([19]; 15 g/ha): 20%
Percentage damage IPOHE ([20]; 15 g/ha): 30%
Percentage damage KCHSC ([21]; 15 g/ha): 100%
Percentage damage POLCO ([22]; 15 g/ha): 20%
Percentage damage SIDSP ([23]; 15 g/ha): 80%
Percentage damage SINAR ([24]; 15 g/ha): 30%
Percentage damage XANST ([25]; 15 g/ha): 0%

C=Cc1c(N)nc(-c2ccc(Cl)c(N(C)C)c2F)nc1C(=O)OC [Compound 1]
pest or weed control at 1000 g/ha [26]: 80%
pest or weed control at 1000 g/ha [27]: 100%
pest or weed control at 1000 g/ha [28]: 90%
pest or weed control at 1000 g/ha [29]: 90%
pest or weed control at 1000 g/ha [30]: 100%
pest or weed control at 1000 g/ha [31]: 90%
pest or weed control at 1000 g/ha [32]: 100%
pest or weed control at 1000 g/ha [33]: 100%
pest or weed control at 1000 g/ha [34]: 90%
pest or weed control at 1000 g/ha [35]: 100%
pest or weed control at 1000 g/ha [36]: 100%
pest or weed control at 30 g/ha ([1]; 30 g/ha): 90%
pest or weed control at 30 g/ha ([2]; 30 g/ha): 100%
pest or weed control at 30 g/ha ([3]; 30 g/ha): 90%
pest or weed control at 30 g/ha ([4]; 30 g/ha): 90%
pest or weed control at 30 g/ha ([5]; 30 g/ha): 20%
plant injury at 30 g/ha ([6]; 30 g/ha): 0%
pest or weed control at 30 g/ha ([7]; 30 g/ha): 40%
pest or weed control at 30 g/ha ([8]; 30 g/ha): 80%
pest or weed control at 30 g/ha ([9]; 30 g/ha): 90%
pest or weed control at 30 g/ha ([10]; 30 g/ha): 60%
pest or weed control at 30 g/ha ([11]; 30 g/ha): 10%
pest or weed control at 30 g/ha ([12]; 30 g/ha): 80%
pest or weed control at 30 g/ha ([13]; 30 g/ha): 100%
melting point: 136 to 137 °C
